Data published in PMC5490826 (Viruses, 2017).

Assays:
Format in all cases: binding
NS5B Δ21 3a = NS5B Δ21 3a (Hepatitis C virus (isolate NZL1), UniProt Q81258); settings: read-out: Lomibuvir / 3a (±SD); pH 7.4, 25 °C, 10 mM MgCl2, 130 mM NaCl, 3% DMSO; allosteric, thumb II site
NS5B Δ21 1b BK = NS5B Δ21 1b BK (Hepatitis C virus (isolate BK), UniProt P26663); assay: SPR (Biacore), kinetic two-state model, immobilized enzyme
NS5B Δ21 1b Con1 [1] = target: T1, NS5B Δ21 1b Con1 (Hepatitis C virus (isolate Con1), UniProt Q9WMX2); assay: as above
NS5B Δ21 1b Con1 [2] = target: T1, NS5B Δ21 1b Con1; assay: differential scanning fluorimetry (SYPRO Orange); settings: 2 µM protein, 10 µM inhibitor, 50 mM Tris-HCl pH 7.5, up to 2% DMSO; allosteric, palm site; unreliable (text b33 differs from table; not confirmed by SPR)

NS5B Δ21 1b BK, sequence (P26663 2420-2989, stated change not applied): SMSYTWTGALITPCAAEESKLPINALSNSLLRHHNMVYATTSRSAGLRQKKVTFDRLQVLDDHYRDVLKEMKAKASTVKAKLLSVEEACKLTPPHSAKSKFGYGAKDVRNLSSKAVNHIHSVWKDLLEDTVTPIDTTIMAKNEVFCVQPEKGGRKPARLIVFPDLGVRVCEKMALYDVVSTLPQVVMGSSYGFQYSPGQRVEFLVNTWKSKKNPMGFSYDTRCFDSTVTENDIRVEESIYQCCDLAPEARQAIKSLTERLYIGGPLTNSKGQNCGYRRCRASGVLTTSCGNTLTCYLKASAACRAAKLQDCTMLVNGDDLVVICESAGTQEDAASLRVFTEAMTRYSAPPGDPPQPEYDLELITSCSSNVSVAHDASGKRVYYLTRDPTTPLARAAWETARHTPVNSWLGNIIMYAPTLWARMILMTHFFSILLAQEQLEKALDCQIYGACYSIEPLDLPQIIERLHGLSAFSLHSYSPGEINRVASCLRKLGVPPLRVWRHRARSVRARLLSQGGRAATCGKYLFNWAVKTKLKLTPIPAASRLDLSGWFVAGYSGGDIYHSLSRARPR
NS5B Δ21 3a, sequence (Q81258 2431-3000, stated change not applied): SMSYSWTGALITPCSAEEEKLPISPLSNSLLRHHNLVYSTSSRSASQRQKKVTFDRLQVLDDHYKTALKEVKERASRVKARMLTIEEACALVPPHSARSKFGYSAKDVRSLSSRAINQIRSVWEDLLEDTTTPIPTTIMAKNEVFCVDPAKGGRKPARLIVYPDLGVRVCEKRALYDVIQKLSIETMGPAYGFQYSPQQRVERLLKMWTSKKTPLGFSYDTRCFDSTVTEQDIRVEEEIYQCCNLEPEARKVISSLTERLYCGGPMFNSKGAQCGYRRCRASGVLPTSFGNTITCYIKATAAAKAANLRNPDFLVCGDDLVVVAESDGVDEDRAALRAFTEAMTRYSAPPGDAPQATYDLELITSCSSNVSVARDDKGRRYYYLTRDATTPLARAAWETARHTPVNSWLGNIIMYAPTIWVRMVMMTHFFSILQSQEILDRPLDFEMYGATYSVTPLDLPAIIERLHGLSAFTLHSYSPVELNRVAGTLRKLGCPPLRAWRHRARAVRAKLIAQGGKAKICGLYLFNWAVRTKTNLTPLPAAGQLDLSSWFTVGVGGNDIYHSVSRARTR

| Structure (SMILES) | Kd (NS5B Δ21 3a) [nM] | Kd (NS5B Δ21 1b BK) [nM] | Kd (NS5B Δ21 1b Con1 [1]) [nM] | 1b Con1 / ΔTm (NS5B Δ21 1b Con1 [2]) [°C] |
| --- | --- | --- | --- | --- |
| CC(C)(C)C#Cc1cc(N(C(=O)[C@H]2CC[C@H](C)CC2)[C@H]2CC[C@H](O)CC2)c(C(=O)O)s1 [lomibuvir] | > 2000 | 20 ± 0.4 | 19 ± 7 | – |
| CNC(=O)c1c(-c2ccc(F)cc2)oc2cc(N(CCO)S(C)(=O)=O)c(C3CC3)cc12 [nesbuvir] | – | – | – | 5 |
